Assay: molar heat capacity at constant pressure
Conditions: 101.33 kPa

Brc1ccc(Br)cc1 [1,4-dibromobenzene]
molar heat capacity at constant pressure [J/K/mol]
Conditions	Crystal	Liquid
5.27 K	1.01	–
5.8 K	1.18	–
6.45 K	1.36	–
6.5 K	1.38	–
7.46 K	2.31	–
7.64 K	2.66	–
7.71 K	2.81	–
8.52 K	3.67	–
8.77 K	3.87	–
9.03 K	4.08	–
9.52 K	4.41	–
10 K	5.01	–
10.07 K	5.11	–
10.26 K	5.43	–
10.6 K	5.83	–
11.8 K	6.63	–
12.15 K	7.18	–
12.41 K	7.69	–
12.47 K	7.8	–
13.6 K	9.64	–
14.05 K	10.68	–
14.2 K	10.78	–
15 K	12.33	–
15.55 K	13.29	–
15.57 K	13.3	–
15.9 K	13.84	–
16.68 K	14.94	–
17.46 K	16.03	–
17.68 K	16.47	–
17.94 K	16.83	–
18.59 K	17.79	–
19.73 K	19.51	–
20 K	19.9	–
20.25 K	20.25	–
22.16 K	22.72	–
22.64 K	23.37	–
23.84 K	25.08	–
24.7 K	25.82	–
25 K	26.17	–
26.55 K	28	–
27.15 K	28.54	–
28.82 K	30.45	–
29.32 K	30.8	–
30 K	31.55	–
31.01 K	32.68	–
31.27 K	32.7	–
33.06 K	34.41	–
33.29 K	34.82	–
35.63 K	36.98	–
38.01 K	38.95	–
40 K	40.38	–
40.43 K	40.7	–
42.9 K	42.52	–
45.4 K	44.29	–
47.94 K	45.99	–
50 K	47.3	–
50.51 K	47.61	–
53.12 K	49.13	–
55.75 K	50.72	–
58.41 K	52.22	–
60 K	53.1	–
61.09 K	53.7	–
63.8 K	55.15	–
66.54 K	56.56	–
69.3 K	57.98	–
70 K	58.33	–
72.07 K	59.33	–
74.86 K	60.72	–
77.68 K	62.03	–
80 K	63.11	–
80.51 K	63.35	–
83.36 K	64.67	–
86.22 K	65.91	–
89.08 K	67.21	–
89.28 K	67.47	–
90 K	67.83	–
91.9 K	68.39	–
92.15 K	68.67	–
94.65 K	69.5	–
95.04 K	69.84	–
97.35 K	70.59	–
97.94 K	71.11	–
100 K	71.7	–
100.85 K	72.3	–
102.59 K	72.97	–
103.77 K	73.61	–
105.15 K	73.98	–
106.7 K	74.69	–
109.64 K	75.86	–
110 K	76	–
112.58 K	77.06	–
115.54 K	78.22	–
118.5 K	79.39	–
120 K	79.98	–
121.46 K	80.54	–
124.44 K	81.71	–
127.42 K	82.85	–
130 K	83.85	–
130.4 K	84.01	–
133.39 K	85.14	–
136.39 K	86.25	–
139.39 K	87.37	–
140 K	87.59	–
142.39 K	88.47	–
145.4 K	89.57	–
148.41 K	90.66	–
150 K	91.25	–
151.43 K	91.77	–
154.45 K	92.84	–
157.47 K	93.92	–
160 K	94.86	–
160.49 K	95.04	–
163.52 K	96.13	–
166.54 K	97.21	–
169.55 K	98.29	–
170 K	98.46	–
172.58 K	99.4	–
175.6 K	100.5	–
178.62 K	101.59	–
180 K	102.09	–
181.65 K	102.69	–
184.69 K	103.79	–
187.72 K	104.9	–
190 K	105.74	–
190.75 K	106.01	–
193.79 K	107.09	–
196.83 K	108.2	–
199.86 K	109.24	–
200 K	109.29	–
202.9 K	110.27	–
205.94 K	111.41	–
208.97 K	112.54	–
210 K	112.91	–
212.01 K	113.63	–
215.05 K	114.77	–
218.09 K	115.88	–
220 K	116.57	–
221.12 K	116.98	–
224.16 K	118.12	–
227.19 K	119.19	–
230 K	120.22	–
230.23 K	120.31	–
233.27 K	121.42	–
236.31 K	122.55	–
239.34 K	123.69	–
240 K	123.94	–
242.38 K	124.8	–
245.41 K	125.94	–
248.44 K	127.13	–
250 K	127.69	–
251.48 K	128.22	–
254.52 K	129.34	–
257.56 K	130.47	–
260 K	131.36	–
260.6 K	131.58	–
263.64 K	132.68	–
266.67 K	133.83	–
269.71 K	134.94	–
270 K	135.04	–
272.74 K	136.06	–
275.78 K	137.2	–
278.81 K	138.23	–
280 K	138.63	–
281.84 K	139.24	–
284.87 K	140.31	–
287.9 K	141.45	–
290 K	142.24	–
290.93 K	143.08	–
292.89 K	143.33	–
293.96 K	143.64	–
295.8 K	144.5	–
296.99 K	144.79	–
298.15 K	145.34	–
298.79 K	145.71	–
300 K	145.97	–
300.02 K	145.98	–
301.84 K	146.94	–
303.03 K	147.07	–
304.88 K	148.06	–
306.05 K	148.21	–
307.92 K	149.18	–
309.07 K	149.34	–
310 K	149.79	–
310.96 K	150.23	–
312.09 K	150.47	–
314 K	151.06	–
317.04 K	152.02	–
320 K	153.12	–
320.07 K	153.14	–
323.1 K	154.4	–
326.13 K	155.58	–
329.16 K	156.76	–
330 K	157.09	–
332.19 K	157.97	–
335.22 K	159.26	–
338.24 K	160.5	–
340 K	161.27	–
341.26 K	161.81	–
344.28 K	163.16	–
347.3 K	164.65	–
350 K	166.05	–
350.32 K	166.28	–
360 K	171.43	–
360.48 K	171.7	190.38
362.85 K	–	190.92
363.89 K	–	191.22
365.71 K	–	191.62
366.91 K	–	191.91
368.72 K	–	192.27
369.93 K	–	192.55
370 K	–	192.57
371.72 K	–	192.9
372.94 K	–	193.22
374.79 K	–	193.57
377.7 K	–	194.15
380 K	–	194.61
380.68 K	–	194.75

Source: the NIST ThermoML archive (doi:10.1021/je049762q)
